# Assays:
# FKBP12 = FKBP12 (Homo sapiens, UniProt P62942); assay: Ki test procedure: inhibition of peptidyl-prolyl isomerase (rotamase) activity, chymotrypsin-coupled assay; format: biochemical; settings: apparent Ki, rotamase activity of FKBP, substrate N-succinyl-Ala-Ala-Pro-Phe-p-nitroanilide
# Excerpt: The inhibition of the prolyl peptidyl cis-trans isomerase activity of FKBP may be measured as an indicator of this affinity.
# Inhibition of the peptidyl-prolyl isomerase (rotamase) activity of the inventive compounds can be evaluated by known methods described in the literature (Harding, et al., Nature, 1989, 341:758-760; Holt et al. J. Am. Chem. Soc., 115:9923-9938). These values are obtained as apparent Ki's and are presented in Table I. The cis-trans isomerization of an alanine-proline bond in a model substrate, N-succinyl-Ala-Ala-Pro-Phe-p-nitroanilide, is monitored spectrophotometrically in a chymotrypsin-coupled assay, which releases para-nitroanilide from the trans form of the substrate. The inhibition of this reaction caused by the addition of different concentrations of inhibitor is determined, and the data is analyzed as a change in first-order rate constant as a function of inhibitor concentration to yield the apparent Ki values.
# In a plastic cuvette are added […] of ice cold assay buffer (25 mM HEPES, pH 7.8, 100 mM NaCl), […] of FKBP (2.5 mM in 10 mM Tris-Cl pH 7.5, 100 mM NaCl, 1 mM dithiothreitol), […] of chymotrypsin (50 mg/ml in 1 mM HCl) and […] of test compound at various concentrations in dimethyl sulfoxide. The reaction is initiated by the addition of 5 mL of substrate (succinyl-Ala-Phe-Pro-Phe-para-nitroanilide, 5 mg/mL in 2.35 mM LiCl in trifluoroethanol).
# The absorbance at 390 nm versus time is monitored for 90 seconds using a spectrophotometer and the rate constants are determined from the absorbance versus time data files.
# [1] = system: chick dorsal root ganglia; assay: Chick dorsal root ganglion cultures and neurite outgrowth; format: cell-based; settings: Gallus gallus, 48 h; read-out: ED50 (the source's name)
# Method: Dorsal root ganglia were dissected from chick embryos of ten day gestation. Whole ganglion explants were cultured on thin layer Matrigel-coated 12 well plates with Liebovitz L15 plus high glucose media supplemented with 2 mM glutamine and 10% fetal calf serum, and also containing 10 μM cytosine β-D arabinofuranoside (Ara C) at 37° C. in an environment containing 5% CO2. Twenty-four hours later, the DRGs were treated with various immunophilin ligands. Forty-eight hours after drug treatment, the ganglia were visualized under phase contrast or Hoffman Modulation contrast with a Zeiss Axiovert inverted microscope. Photomicrographs of the explants were made, and neurite outgrowth was quantitated. Neurites longer than the DRG diameter were counted as positive, with total number of neurites quantitated per each experimental condition. Three to four DRGs are cultured per well, and each treatment was performed in duplicate.
# The data for these experiments for representative compounds are presented in the “ED50” column of Table I.
# [2] = system: TH-positive dopaminergic neurons in the striatum; assay: MPTP model of Parkinson's Disease, TH immunostaining of striatum; format: in vivo; settings: MPTP-lesioned CD1 mice (30 mg/kg i.p. for 5 days), compound 4 mg/kg s.c. for 10 days, striatum at 18 days
# Method: MPTP lesioning of dopaminergic neurons in mice was used as an animal model of Parkinson's Disease. Four week old male CD1 white mice were dosed i.p. with 30 mg/kg of MPTP for 5 days. Test compounds (4 mg/kg), or vehicle, were administered s.c. along with the MPTP for 5 days, as well as for an additional 5 days following cessation of MPTP treatment. At 18 days following MPTP treatment, the animals were sacrificed and the striata were dissected and perfusion-fixed. Immunostaining was performed on saggital and coronal brain sections using anti-tyrosine hydroxylase […] to quantitate survival and recovery of dopaminergic neurons. In animals treated with MPTP and vehicle, a substantial loss of functional dopaminergic terminals was observed as compared to non-lesioned animals.
# Chain of FKBP12 (P62942 whole entry, species assumed): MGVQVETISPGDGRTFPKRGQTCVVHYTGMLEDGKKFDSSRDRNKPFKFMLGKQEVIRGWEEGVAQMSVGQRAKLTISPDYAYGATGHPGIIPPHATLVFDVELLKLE
Ki (FKBP12),SMILES,EC50 [1],"% Rescue, TH Immunostaining at 4 mg/kg, s.c. [2]"
72 nM,"O=C(OCCCc1cccnc1)[C@@H]1CCCN1S(=O)(=O)Cc1ccccc1 [Compound 1, 3-(3-Pyridyl)-1-propyl(2S)-N-(α-toluenesulfonyl)pyrrolidine-2-carboxylate]",0.002 nM,44.31%
34 nM,"O=C(OCCCCc1ccccc1)C1CCCCN1S(=O)(=O)Cc1ccccc1 (stereo not drawn) [Compound 2, 4-Phenyl-1-butyl 1-(α-tolylsulfonyl)-2-pipecolinate]",0.031 nM,38.00%
,O=C(OCCCCc1ccccc1)C1CCCCN1S(=O)(=O)c1ccccc1 (stereo not drawn) [4-phenyl-1-butyl-N-(benzenesulfonyl) pipecolate],,29.22%
107 nM,"O=C(OC(CCc1ccccc1)CCc1ccccc1)C1CCCCN1S(=O)(=O)Cc1ccccc1 (stereo not drawn) [Compound 3, 1,5-Diphenyl-3-pentyl N-(α-toluenesulfonyl)-pipecolate]",0.133 nM,

# From patent US20030114492A1, “Method of using neurotrophic sulfonamide compounds” (priority 1997, published 2003)
